Assay results taken from a melting point compilation (Tetko et al.; mined from patent text by program, amines drawn as free bases though some values may be those of a salt).

Row | SMILES | melting point
1 | CCCCCCOC1CC(C)(C)N(c2nc(N(CCCC)C3CC(C)(C)NC(C)(C)C3)nc(N(CCCC)C3CC(C)(C)NC(C)(C)C3)n2)C(C)(C)C1 | 135 to 137 °C
2 | CC1CN2C(=NC1=O)CCC2C (stereo not drawn) | 150 to 152 °C
3 | CNC(=O)N1N=C(c2ccc([N+](=O)[O-])cc2)c2cc(OC)c(Br)cc2CC1C (stereo not drawn) | 224 to 226 °C
4 | CCOC(=O)c1c(CN(CC)CC)nc2sc(C)c(C)c2c1-c1ccc(OC)cc1 | 116 to 118 °C
5 | CCOC(=O)c1cn(-c2nnn[nH]2)c2cc(F)c(F)cc2c1=O | 233 to 236 °C
6 | On1cc(-c2ccccc2)[nH]c1=S | 196 °C
7 | CCOC(=O)c1ccc(CBr)cc1OC | 70 to 71 °C
8 | O=C(CCCI)Nc1ccccc1 | 138 to 139 °C
9 | CN1C(=N)N(c2ccc(Cl)cc2)CC1=O | 182 to 184 °C
10 | S=c1[nH]cnc2c(Br)csc12 | 328 °C
11 | CC(=O)n1nc(N2CCN(C)CC2)c2ccccc21 | 106 to 108 °C
12 | CCC(=O)Nc1cccc(NC(=O)CC(C)=O)c1 | 70 °C
13 | CC(C)(S)C(=O)N[C@@H](CS)C(=O)O | 139 to 140 °C
14 | CCOC=Nc1noc(-c2cc(C(C)(C)C)c(O)c(C(C)(C)C)c2)n1 | 159 to 161 °C
15 | CC(=CC(=O)NCc1cccc(CNC(=O)C=C(C)C(=O)O)c1)C(=O)O | 148 to 150 °C
16 | CC(C)(C(N)=O)C(O)(Cn1cncn1)c1ccc(Cl)cc1Cl (stereo not drawn) | 162 to 163 °C
17 | O=P1(c2ccccc2)CCCC1CO (stereo not drawn) | 109 to 110 °C

Row | SMILES | melting point
18 | COc1ccccc1-c1ncsc1C(=O)O | 170 to 172 °C
19 | CC(C)(C)CNc1cc(Cl)nc(NC(C)(C)C)n1 | 110 to 111 °C
20 | CC(N)=CC(=O)c1cccnc1 | 82 °C
21 | C[C@H](N)Cn1ncc2ccc(C(N)=O)cc21 | 170 to 172 °C
22 | Nc1c(C(=O)c2cccc(C(F)(F)F)c2)[nH]c2cc(Cl)ccc12 | 84 to 87 °C
23 | CCc1cc(C#N)c(OC)nc1C | 59 to 61 °C
24 | CN(C)Cc1cc(C(=O)c2ccccc2)cc(C(C)(C)C)c1O | 129 °C
25 | Nc1c(Cl)cc(Cl)c(-c2nsc(C(F)(F)F)c2Cl)c1Br | 77 to 78 °C
26 | O=C(c1ccncc1)c1cc(Br)cc(Br)c1 | 89 to 92 °C
27 | COc1ccc(-c2ccncc2OC2SCC(OC(C)=O)C(OC(C)=O)C2OC(C)=O)cc1 (stereo not drawn) | 193 °C
28 | c1cnn(-c2ccnc(-n3cccn3)n2)c1 | 152 to 153 °C
29 | CCC(=O)Nc1cc(NC(=O)CC)cc([N+](=O)[O-])c1 | 197 to 198 °C
30 | CCCCCCCCCCCCc1cc(CO)on1 | 61 to 63 °C
31 | C=CCNc1nc(NCC(F)(F)F)nc2ccc([N+](=O)[O-])cc12 | 221 to 222 °C
32 | Clc1ccc2ccc(COc3ccc4c(c3)C(SCCc3nnn[nH]3)c3ccccc3CO4)nc2c1 (stereo not drawn) | 142 to 147 °C
33 | Cc1cc(C(=O)Nc2cc(F)ccc2O)c(Br)s1 | 210 to 212 °C

Continued, values first:

Row | melting point | SMILES
34 | 110 to 111 °C | CC(C)=CCCOc1c(-c2ccc(S(C)(=O)=O)cc2)cnn(-c2cccc(Cl)c2)c1=O
35 | 96 to 97 °C | CCOc1ccc(-c2nc(-c3ccc(OCC(=O)OC)c(C(=O)OC)c3)cs2)cc1OCC
36 | 155 °C | Cc1ncn(Nc2ccc(F)cc2)c1-c1ccccc1
37 | 245 to 247 °C | COc1cc2c(cc1Nc1ncc(Cl)c(Nc3ccccc3OCC#N)n1)CCOC(=O)N2C
38 | 42 to 46 °C | COc1ccc(C2=NN(Cc3ccc(OCCCCBr)cc3)C(=O)[C@@H]3CC=CC[C@H]23)cc1OC
39 | 186 °C | Cc1nc2ccccc2c(=O)n1CCN1CCC(Nc2nc3ccccc3n2Cc2ccc(F)cc2)CC1
40 | 193 °C | Cn1c(=O)c(C(=O)NC2CCCCC2)c(O)c2cc(F)ccc21
41 | 103 to 104 °C | CC(C#N)(COc1ccc(Cl)cc1Cc1ccccc1)NC(=O)c1ccc(OC(F)(F)F)cc1 (stereo not drawn)
42 | 122 to 123 °C | [O-][N+]1=C(c2ccccc2)c2cc(Cl)ccc2C=CC1
43 | 148 to 150 °C | COc1ccc(-c2ccnc(Nc3cc(OC)c(OC)c(OC)c3)n2)cc1
44 | 212 to 214 °C | N#CN1CCC(=C2c3ccccc3CCc3ccncc32)CC1
45 | 205 to 207 °C | CCC(=Cc1cn(CC(=O)N(C)CCc2ccccc2)c2ccc(OCc3ccccc3)cc12)C(=O)O
46 | 135 to 137 °C | CN1C(=O)C(c2cccc(-c3ccccc3)c2)(C2CCN(C(=O)c3cccs3)CC2)N=C1N (stereo not drawn)
47 | 184 to 185 °C | CCOc1ccc(C(=O)Nc2ccccc2)cc1N(c1ccccc1)C(F)(F)F
48 | 234 to 236 °C | O=C1CCC(N2C(=O)c3cccc(OCc4cc5ccccc5o4)c3C2=O)C(=O)N1 (stereo not drawn)
49 | 203 to 205 °C | CCOC(=O)c1[nH]c2cc(Cl)cc(Cl)c2c1NCCCC(=O)c1ccccc1
50 | 212 to 215 °C | CC(CO)(CO)NCc1c2ccc3ccccc3c2cc2ccsc12
51 | 256 to 258 °C | COc1ccc(C(C#N)C(=O)C(=O)C(C#N)c2ccccc2)cc1 (stereo not drawn)
52 | 80 to 82 °C | CCOC(=O)CN1CCC(=C2c3ccc(Cl)cc3CCc3cccnc32)CC1
53 | 144 to 145 °C | CNc1nc(-c2ccco2)c2ncn(Cc3ccc(OC)cc3)c2n1

Row | melting point | SMILES
54 | 178 to 180 °C | COS(=O)(=O)c1ccc(Cl)cc1NC(=O)/C=C/c1ccc2ccccc2c1
55 | 58 to 60 °C | COC(=O)C1=C2Nc3ccccc3C23CCN(Cc2ccccc2)C3CC1 (stereo not drawn)
56 | 172 to 173 °C | Cc1ccnc2c1N=C(S(C)(=O)=O)c1cccnc1N2C1CC1
57 | 120 °C | O=C(Nc1ccccc1)C1=C(O)c2ccccc2N(c2ccccc2)C1
58 | 199 to 201 °C | C1=C(N2c3ccccc3Sc3ccccc32)N(C2=NCCC2)CC1
59 | 275 to 280 °C | Cc1csc2c1c(-c1ccccc1)nc(=O)n2C
60 | 49 to 51 °C | Cc1ccc(S(=O)(=O)Cc2ccccc2)cc1
61 | 126 to 130 °C | O=C1N(CCN2CCC(c3noc4cc(F)ccc34)CC2)CCN1Cc1ccccc1
62 | 178 to 179 °C | Nc1ccc(CCNS(=O)(=O)c2cccc3[nH]nnc23)cc1
63 | 73 °C | O=c1[nH]c(=O)n(C2CC(F)C(COC(c3ccccc3)(c3ccccc3)c3ccccc3)O2)cc1C#CI (stereo not drawn)
64 | 135 to 136 °C | CCCOc1ccc(S(=O)(=O)N2CCN(CCOC(=O)OCC)CC2)cc1-c1nc2c(CCC)cn(CC)c2c(=O)[nH]1
65 | 144 to 145 °C | CC(=O)NC(CO)C(O)c1ccc(C=Cc2csc3ccccc23)s1 (stereo not drawn)
66 | 312 to 314 °C | O=C1CCCC(=O)N1CCCn1c2ccccc2c2nc3ccccc3nc21
67 | 91 °C | CC(Nc1ccc2[nH]c(=O)oc2c1)C(=O)N1CCC(Cc2ccccc2)CC1 (stereo not drawn)
68 | 60 to 60.5 °C | CCN(CC)CCOc1cccc2c1c1cccc(F)c1n2Cc1ccccc1
69 | 108 to 110 °C | COc1ccc(C2C(C(=O)/C=C/c3ccccc3)C(=O)CC(c3ccccc3)C2[N+](=O)[O-])cc1 (stereo not drawn)
70 | 199 °C | Cc1cc(N(C)Cc2ccc(-c3ccc(C(F)(F)F)cc3)nc2)ccc1OCC(=O)O
71 | 125 to 129 °C | O=C(Oc1ccccn1)c1cc2cc(CCl)ccc2oc1=O
72 | 155 to 157 °C | Cc1cc(-c2cc3c(OC[C@@H](O)CN4CCC(c5ccc6ccccc6c5)CC4)cccc3o2)nn1C
73 | 206 °C | O=Cc1c(O)cccc1OCc1ccc(-c2nnn[nH]2)cc1
